Consider 7 compounds from patent US20250109140A1, “5-[5-(PIPERIDIN-4-YL)THIENO[3,2-C]PYRAZOL-2-YL]INDAZOLE DERIVATIVES AND RELATED COMPOUNDS AS MODULATORS FOR SPLICING NUCLEIC ACIDS AND FOR THE TREATMENT OF PROLIFERATIVE DISEASES” (REMIX THERAPUTICS INC., priority 2022, published 2025).

Common to all, as to assay type: cell-based
For one experiment, the system named is HTT mRNA. As to the kind of experiment: Splicing RT-qPCR assay, HTT canonical (CJ) and alternative (AJ) junction mRNA. Particulars: Homo sapiens; for EC50: AC50 = 50% response in AJ mRNA increase. The procedure: (§1) Compounds described herein were used to modulate RNA transcript abundance in cells. The expression of a target mRNA was measured by detecting the formation of an exon-exon junction in the canonical transcript (CJ). A compound mediated exon-inclusion event was detected by observing an increase in formation of a new junction with an alternative exon (AJ). Real-time qPCR assays were used to detect these splicing switches and interrogate the potency of various compounds towards different target genes. A high-throughput real time quantitative PCR (RT-qPCR) assay was developed to measure these two isoforms of the mRNA (CJ and AJ) for exemplary genes, such as HTT, SMN2, and MYB, together with a control housekeeping gene, GAPDH or GUSB or PPIA, used for normalization. Briefly, the A673 or K562 cell line was treated with various compounds described herein (e.g., compounds of Formula (I)). After treatment, the levels of the HTT, MYB, or SMN2 mRNA targets were determined from each sample of cell lysate by cDNA synthesis followed by qPCR.
(§2) The A673 cell line was cultured in DMEM with 10% FBS. Cells were diluted with full growth media and plated in a 96-well plate (15,000 cells in 100 ul media per well). The plate was incubated at 37° C. with 5% CO2 for 24 hours to allow cells to adhere. An 11-point 3-fold serial dilution of the compounds was made in DMSO then diluted in media in an intermediate plate. Compounds were transferred from the intermediate plate to the cell plate with the top dose at a final concentration of 10 uM in the well. Final DMSO concentration was kept at or below 0.25%. The cell plate was returned to the incubator at 37° C. with 5% CO2 for an additional 24 hours.
(§3) The K562 cell line was cultured in IMDM with 10% FBS. For K562, cells were diluted with full growth media and plated in either a 96-well plate (50,000 cells in 50 uL media per well) or a 384-well plate (8,000-40,000 cells in 45 uL media per well). An 11-point 3-fold serial dilution of the compounds were made in DMSO then diluted in media in an intermediate plate. Compound was transferred from the intermediate plate to the cell plate with the top dose at a final concentration of 10 uM in the well. Final DMSO concentration was kept at or below 0.25%. Final volume was 100 uL for 96-well plate and 50 uL for 384-well plate. The cell plate was then placed in an incubator at 37° C. with 5% CO2 for 24 hours.
(§4) The cells were then gently washed with 50 uL-100 uL cold PBS before proceeding to addition of lysis buffer. 30 uL-50 uL of room temperature lysis buffer with DNAse I (and optionally RNAsin) was added to each well. Cells were shaken/mixed thoroughly at room temperature for 5-10 minutes for lysis to take place and then 3 uL-5 uL of room temperature stop solution was added and wells were shaken/mixed again. After 2-5 minutes, the cell lysate plate was transferred to ice for RT-qPCR reaction setup. The lysates could also be frozen at-80° C. for later use.
(§5) In some cases, a direct lysis buffer was used. An appropriate volume of 3× lysis buffer (10 mM Tris, 150 mM NaCl, 1.5%-2.5% Igepal and 0.1-1 U/uL RNAsin, pH 7.4) was directly added to either K562 or A673 cells in media and mixed by pipetting 3 times. The plates were then incubated at room temperature with shaking/rocking for 20-50 minutes to allow for lysis to take place. After this time, the cell lysate plate was transferred to ice to set up for the RT-qPCR reactions. The lysates could also be frozen at −80° C. for later use.
(§6) To set up 10 uL RT-qPCR reactions, cell lysates were transferred to 384-well qPCR plates containing the master mix according to the table below. The plates were sealed, gently vortexed, and spun down before the run. The volumes were adjusted accordingly in some instances where the reaction was carried in 20 μL. The table below summarizes the components of the RT-qPCR reactions:
(§7) The RT-qPCR reaction was performed using a QuantStudio (ThermoFisher) under the following fast cycling conditions. […]
In general terms: Quantitative PCR measures a nucleic acid by following its amplification.

A further experiment relates to MYB mRNA. The experiment can be described thus: Splicing RT-qPCR assay, MYB canonical (CJ) and alternative (AJ) junction mRNA. Particulars: Homo sapiens; for EC50: AC50 = 50% response in AJ mRNA increase. The procedure: as §1, §2, §3, §4, §5, §6, §7
The test system of the next experiment is SMN2 mRNA. The experiment can be described thus: Splicing RT-qPCR gene panel, SMN2 canonical junction (CJ) mRNA. The note with it: Homo sapiens; Table 8; larger gene panel, decrease in CJ mRNA levels. The procedure:
as §1, §2, §3, §4, §5, §6, §7

In another experiment the test system is Target C mRNA. The experiment can be described thus: Splicing RT-qPCR gene panel, Target C canonical junction (CJ) mRNA. Particulars: Homo sapiens; Table 8; larger gene panel, decrease in CJ mRNA levels. On the procedure: as §1, §2, §3, §4, §5, §6, §7
Setting [1] is: Table 7, RT-qPCR, A673 or K562 cells, 24 hours treatment.
[2] abbreviates: Table 7, IC50 = 50% response in CJ mRNA decrease, RT-qPCR, A673 or K562 cells, 24 hours treatment, read-out: HTT CJ.
The mark [3] stands for this setting: Table 8, larger gene panel, decrease in CJ mRNA levels, read-out: HTT CJ IC50.
[4] abbreviates: Table 7, IC50 = 50% response in CJ mRNA decrease, RT-qPCR, A673 or K562 cells, 24 hours treatment, read-out: MYB CJ.
Where [5] appears, read: Table 8, larger gene panel, decrease in CJ mRNA levels, read-out: MYB CJ IC50.

Where two headings read alike, the source gives them in different places.

With `CN1CCC(c2cc3sc(-c4cc(F)c5nn(C)cc5c4)nc3s2)CC1` [Compound 151, 7-fluoro-2-methyl-5-[5-(1-methylpiperidin-4-yl)thieno[2,3-d][1,3]thiazol-2-yl]indazole], the concentration giving a half-maximal response (EC50) (commonly the concentration giving half of the maximal effect) in the experiment on HTT mRNA (setting [1]) was less than 0.1 µM; in the experiment on MYB mRNA (setting [1]) it was 1 to 10 µM. Moreover, the IC50 was less than 0.1 µM with HTT mRNA (setting [2]); less than 0.1 µM in the experiment on HTT mRNA (setting [3]); 0.1 to 1 µM with MYB mRNA (setting [4]); 1 to 10 µM with MYB mRNA (setting [5]); less than 0.1 µM in the experiment on SMN2 mRNA; 0.1 to 1 µM with Target C mRNA.
As to `CN(C)C1CCN(c2cc3sc(-c4cc(F)c5nn(C)cc5c4)nc3s2)CC1` [Compound 154, 1-[2-(7-fluoro-2-methylindazol-5-yl)thieno[2,3-d][1,3]thiazol-5-yl]-N,N-dimethylpiperidin-4-amine], the concentration giving a half-maximal response (EC50) in the experiment on HTT mRNA (setting [1]) and in the experiment on MYB mRNA (setting [1]) was 0.1 to 1 µM in each case. Further, the IC50 in the experiment with HTT mRNA (setting [2]) is 0.1 to 1 µM; in the experiment on HTT mRNA (setting [3]), 0.1 to 1 µM; with MYB mRNA (setting [4]), 0.1 to 1 µM; with MYB mRNA (setting [5]) it was 0.1 to 1 µM; in the experiment on SMN2 mRNA, less than 0.1 µM; in the experiment with Target C mRNA it was 0.1 to 1 µM.
Take `CN(c1cc2sc(-c3ccc(-c4cn[nH]c4)cc3O)nc2s1)[C@@H]1C[C@H]2CC[C@@H](C1)N2` [Compound 191, 2-{5-[(1R,3R,5S)-8-azabicyclo[3.2.1]octan-3-yl(methyl)amino]thieno[2,3-d][1,3]-thiazol-2-yl}-5-(1H-pyrazol-4-yl)phenol]: the EC50 in the experiment on HTT mRNA (setting [1]) and in the experiment on MYB mRNA (setting [1]) was greater than 10 µM in each case. The IC50 in the experiment with HTT mRNA (setting [2]), in the experiment on HTT mRNA (setting [3]), in the experiment on MYB mRNA (setting [4]), in the experiment with MYB mRNA (setting [5]), in the experiment on SMN2 mRNA and in the experiment with Target C mRNA was greater than 10 µM each time.
Turning to `Cc1cn2nc(-c3nc4sc(C5=CCOCC5)cc4s3)cc(C)c2n1` [Compound 195, 6-[5-(3,6-dihydro-2H-pyran-4-yl)thieno[2,3-d][1,3]thiazol-2-yl]-2,8-dimethylimidazo[1,2-b]pyridazine], the EC50 with HTT mRNA (setting [1]) and with MYB mRNA (setting [1]) was 0.1 to 1 µM throughout. In addition, the IC50 in the experiment on HTT mRNA (setting [2]), with HTT mRNA (setting [3]), with MYB mRNA (setting [4]), with MYB mRNA (setting [5]), in the experiment on SMN2 mRNA and with Target C mRNA was 0.1 to 1 µM each time.
On to `Cc1cn2nc(-c3nc4sc(C5CCOCC5)cc4s3)cc(C)c2n1` [Compound 196, 2,8-dimethyl-6-[5-(oxan-4-yl)thieno[2,3-d][1,3]thiazol-2-yl]imidazo[1,2-b]pyridazine], for which the EC50 in the experiment on HTT mRNA (setting [1]) and in the experiment with MYB mRNA (setting [1]) was 1 to 10 µM each time. Further, the IC50 with HTT mRNA (setting [2]), with HTT mRNA (setting [3]), with MYB mRNA (setting [4]), in the experiment with MYB mRNA (setting [5]), with SMN2 mRNA and with Target C mRNA was 1 to 10 µM each time.
Take `Cc1cn2nc(-c3nc4sc(C5CCNC5)cc4s3)cc(C)c2n1` (centres unmarked) [Compound 197, 3-(2-{2,8-dimethylimidazo[1,2-b]pyridazin-6-yl}thieno [2,3-d][1,3]thiazol-5-yl)pyrrolidine]: the concentration for a half-maximal effect (EC50) with HTT mRNA (setting [1]) and with MYB mRNA (setting [1]) was 0.1 to 1 µM throughout. The IC50 in the experiment with HTT mRNA (setting [2]) was 0.1 to 1 µM; in the experiment with HTT mRNA (setting [3]) it was 0.1 to 1 µM; with MYB mRNA (setting [4]) it was 0.1 to 1 µM; with MYB mRNA (setting [5]), 0.1 to 1 µM; with SMN2 mRNA it was 0.1 to 1 µM; in the experiment with Target C mRNA, 1 to 10 µM.
Regarding `Cc1cn2nc(-c3nc4sc(C5=CCNCC5)cc4s3)cc(C)c2n1` [Compound 198, 4-(2-{2,8-dimethylimidazo[1,2-b]pyridazin-6-yl}thieno[2,3-d][1,3]thiazol-5-yl)-1,2,3,6-tetrahydropyridine], the concentration giving a half-maximal response (EC50) in the experiment on HTT mRNA (setting [1]) and with MYB mRNA (setting [1]) was 0.1 to 1 µM each time. Besides, the IC50 is less than 0.1 µM in the experiment on HTT mRNA (setting [2]); 0.1 to 1 µM in the experiment with HTT mRNA (setting [3]); 0.1 to 1 µM in the experiment with MYB mRNA (setting [4]); 0.1 to 1 µM in the experiment with MYB mRNA (setting [5]); less than 0.1 µM in the experiment with SMN2 mRNA; 1 to 10 µM with Target C mRNA.
